In ChEMBL document CHEMBL5236608, “Discovery and Optimization of Potent and Orally Available CTP Synthetase Inhibitors for Use in Treatment of Diseases Driven by Aberrant Immune Cell Proliferation” (J Med Chem, 2022):

Legend:
in vitro [1] = conditions: mouse, hepatocytes
in vivo [2] = conditions: CD-1, mouse, po, 10 mg/kg
in vivo [3] = conditions: CD-1, mouse, po, 10 mg/kg; remark: listed apart in the source
in vitro [4] = conditions: human, Caco-2
in vivo [5] = conditions: CD-1, mouse, po, 10 mg/kg; remark: listed apart in the source
[6] = Dose normalized AUC(0 to t) in collagen-induced arthritis mouse at 50 mg/kg, po measured at day 2; type: ADME, organism-based; conditions: in vivo, 48 h, time 2 day
[7] = AUC(0 to t) in collagen-induced arthritis mouse at 10 mg/kg, po measured at day 2; type: ADME, organism-based; parameters: time 2 day, dose 10 mg/kg, route po; conditions: in vivo
[8] = Dose normalized AUC(0 to t) in collagen-induced arthritis mouse at 10 mg/kg, po measured at day 19; type: ADME, organism-based; conditions: in vivo, 456 h, time 19 day
[9] = Cmax in collagen-induced arthritis mouse at 50 mg/kg, po measured at day 2; type: ADME, organism-based; parameters: dose 50 mg/kg, time 2 day, route po; conditions: in vivo
[10] = AUC(0 to t) in collagen-induced arthritis mouse at 10 mg/kg, po measured at day 9; type: ADME, organism-based; parameters: time 9 day, dose 10 mg/kg, route po; conditions: in vivo
[11] = Dose normalized AUC(0 to t) in collagen-induced arthritis mouse at 10 mg/kg, po measured at day 9; type: ADME, organism-based; conditions: in vivo, 216 h, time 9 day
[12] = Lipophilicity, logD of the compound at pH 7.4; type: physicochemical; conditions: buffer
[13] = Cmax in collagen-induced arthritis mouse at 50 mg/kg, po measured at day 19; type: ADME, organism-based; parameters: dose 50 mg/kg, time 19 day, route po; conditions: in vivo
[14] = Cmax in collagen-induced arthritis mouse at 50 mg/kg, po measured at day 9; type: ADME, organism-based; parameters: dose 50 mg/kg, time 9 day, route po; conditions: in vivo
[15] = AUC(0 to t) in collagen-induced arthritis mouse at 50 mg/kg, po measured at day 9; type: ADME, organism-based; parameters: time 9 day, dose 50 mg/kg, route po; conditions: in vivo
[16] = Dose normalized AUC(0 to t) in collagen-induced arthritis mouse at 50 mg/kg, po measured at day 9; type: ADME, organism-based; conditions: in vivo, 216 h, time 9 day
[17] = AUC(0 to t) in collagen-induced arthritis mouse at 10 mg/kg, po measured at day 19; type: ADME, organism-based; parameters: dose 10 mg/kg, time 19 day, route po; conditions: in vivo
[18] = AUC(0 to t) in collagen-induced arthritis mouse at 50 mg/kg, po measured at day 19; type: ADME, organism-based; parameters: dose 50 mg/kg, time 19 day, route po; conditions: in vivo
[19] = Cmax in collagen-induced arthritis mouse at 10 mg/kg, po measured at day 19; type: ADME, organism-based; parameters: dose 10 mg/kg, time 19 day, route po; conditions: in vivo
[20] = Cmax in collagen-induced arthritis mouse at 10 mg/kg, po measured at day 2; type: ADME, organism-based; parameters: dose 10 mg/kg, time 2 day, route po; conditions: in vivo
[21] = Dose normalized AUC(0 to t) in collagen-induced arthritis mouse at 50 mg/kg, po measured at day 19; type: ADME, organism-based; conditions: in vivo, 456 h, time 19 day
[22] = Dose normalized AUC(0 to t) in collagen-induced arthritis mouse at 10 mg/kg, po measured at day 2; type: ADME, organism-based; conditions: in vivo, 48 h, time 2 day
[23] = AUC(0 to t) in collagen-induced arthritis mouse at 50 mg/kg, po measured at day 2; type: ADME, organism-based; parameters: dose 50 mg/kg, time 2 day, route po; conditions: in vivo
[24] = Cmax in collagen-induced arthritis mouse at 10 mg/kg, po measured at day 9; type: ADME, organism-based; parameters: time 9 day, dose 10 mg/kg, route po; conditions: in vivo

Q: For CS(=O)(=O)Nc1nc(CC(=O)Nc2cccc(Cl)c2)cs1, which pKa (physchem) is on record?
A: 6.58

Q: Which hepatocyte CLint at 1 h, 1 µM (in vitro [1]) does the source give for CC(C)(C(=O)Nc1ccc(-c2cncc(C(F)(F)F)n2)cc1F)c1csc(NS(=O)(=O)C2CC2)n1 here?
A: < 1 µL/min/1e6 cells

Q: What about the AUC(0-t) (in vivo [2]) of the same molecule?
A: 56.1 µM·h

Q: What about the bioavailability (in vivo [3]) of the same molecule?
A: 95%

Q: What about the Papp A→B at 2 h, 10 µM (in vitro [4]) of the same molecule?
A: 9.9 ×10⁻⁶ cm/s

Q: And the Cmax (in vivo [5])?
A: 11.1 µM

Q: What does the source list for CCCOc1ccc(NC(=O)C(C)(C)c2csc(NS(=O)(=O)C3CC3)n2)cc1?
A: hepatocyte CLint at 1 h, 1 µM (in vitro [1]): 32 µL/min/1e6 cells; AUC(0-t) (in vivo [2]): 2.34 µM·h; bioavailability (in vivo [3]): 35%; Cmax (in vivo [5]): 0.9 µM

Q: For CC(C)(C(=O)Nc1ccc(-c2cncc(C(F)(F)F)n2)cn1)c1csc(NS(=O)(=O)C2CC2)n1, which AUCt/dose [6] is on record?
A: 873 ng·h/mL

Q: What about the hepatocyte CLint at 1 h, 1 µM (in vitro [1]) of the same molecule?
A: 8 µL/min/1e6 cells

Q: What about the AUC(0-t) at 48 h [7] of the same molecule?
A: 15000 ng·h/mL

Q: And the AUCt/dose [8]?
A: 1049 ng·h/mL

Q: And the Cmax [9]?
A: 7830 ng/mL

Q: What about the AUC(0-t) at 216 h [10] of the same molecule?
A: 11900 ng·h/mL

Q: What about the AUCt/dose [11] of the same molecule?
A: 1188 ng·h/mL

Q: What about the pKa (physchem) of the same molecule?
A: 6.26

Q: What about the logD [12] of the same molecule?
A: 2.46

Q: And the Cmax [13]?
A: 13000 ng/mL

Q: What about the Cmax [14] of the same molecule?
A: 6390 ng/mL

Q: And the AUC(0-t) at 216 h [15]?
A: 29400 ng·h/mL

Q: And the AUCt/dose [16]?
A: 587 ng·h/mL

Q: And the AUC(0-t) at 456 h [17]?
A: 10500 ng·h/mL

Q: And the AUC(0-t) at 456 h [18]?
A: 52600 ng·h/mL

Q: And the AUC(0-t) (in vivo [2])?
A: 25.3 µM·h

Q: What about the Cmax [19] of the same molecule?
A: 3570 ng/mL

Q: And the Cmax [20]?
A: 4770 ng/mL

Q: What about the AUCt/dose [21] of the same molecule?
A: 1052 ng·h/mL

Q: And the AUCt/dose [22]?
A: 1503 ng·h/mL

Q: And the Papp A→B at 2 h, 10 µM (in vitro [4])?
A: 7.1 ×10⁻⁶ cm/s

Q: And the AUC(0-t) at 48 h [23]?
A: 43700 ng·h/mL

Q: What about the Cmax [24] of the same molecule?
A: 3360 ng/mL

Q: What about the Cmax (in vivo [5]) of the same molecule?
A: 5.3 µM
